For test [1], the target named is Thermus aquaticus T-Rex FRET fusion, initial construct #11, mKOk-Rex(A)-cpmEGFP(173/174)-Rex(B), SEQ ID NO: 171 (Thermus aquaticus, UniProt Q9X2V5, E116G/F189I/K117M/K204T/K47E/R46D/R58D/S30A/Y98W). Put plainly: FRET response (emission spectra) of purified initial construct #11 in absence or presence of 40 uM NADH. The test is classed as biochemical. Further details: key: Good response: Constructs with very clear and robust spectra separation; Poor response: those with noticeable but small spectra separation; No response: those having no spectra separation. Here is the method: (§1) 16 initial FRET constructs (See Table 3) were constructed using expression vector pET28c with a T7 promoter and lac operator and expressed in E. coli. Cells were collected and lysed using a commercially-available lysis buffer. Proteins of interest were isolated from the lysates using Ni-NTA magnetic beads. Eluted proteins were subjected to buffer exchange and final protein concentrating. To test performance of the initial FRET constructs, their emission spectra was recorded on a plate reader in absence or presence of 40 uM NADH. Resulting emission spectra with or without the ligand were normalized and overlaid for each construct. Constructs with very clear and robust spectra separation were labeled as having “good response”, those with noticeable but small spectra separation were labeled as having “poor response”, and finally those having no spectra separation were labeled as having “no response”.

The target of test [2] is Thermus aquaticus T-Rex FRET fusion, initial construct #15, mEGFP-Rex(A)-mKOk-Rex(B), SEQ ID NO: 175 (Thermus aquaticus, UniProt Q9X2V5, E116G/F189I/K117M/K204T/K47E/R46D/R58D/S30A/Y98W). Put plainly: FRET response (emission spectra) of purified initial construct #15 in absence or presence of 40 uM NADH. The class given is biochemical. Also noted: key: Good response: Constructs with very clear and robust spectra separation; Poor response: those with noticeable but small spectra separation; No response: those having no spectra separation. Here is the method: as §1

In the case of `NC(=O)C1=CN([C@@H]2O[C@H](COP(=O)(O)OP(=O)(O)OC[C@H]3O[C@@H](n4cnc5c(N)ncnc54)[C@H](O)[C@@H]3O)[C@@H](O)[C@H]2O)C=CC1` [NADH], the “FRET response to NADH” value in test [1] is “Poor response”; in test [2] it was “No response”.

(Values after patent publication US12338484B2, “FRET biosensor for detecting and reporting NAD+/NADH ratio changes” (Sartorius BioAnalytical Instruments, Inc., priority 2022, dated 2025).)
